Data taken from article PMC11434080, “Acetylation of Oleanolic Acid Dimers as a Method of Synthesis of Powerful Cytotoxic Agents” (Molecules, 2024).
Entries after “also recorded” stand apart in the source; their conditions may differ.

Key:
[1] = parameters: method as in PMID 39000101, PMID 39125028; conditions: previously analyzed derivatives; cited from earlier work
SKBR-3 = assay: MTT assay, SKBR-3; assay type: cell-based, human; conditions: for IC50: SK-BR-3, MTT assay, SKBR-3 human breast adenocarcinoma, value (SD); for SKBR-3 SI: Selectivity Index = IC50 HDF / IC50 SKBR-3
Procedure: (§1) The cytotoxic activity of oleanolic acid (mother compound, 1, Figure 2) and its 14 derivatives (3a–3n, Figure 2) was tested in vitro using the standard MTT method based on viability assay, e.g., [44] against carcinoma cell lines: SKBR-3, SKOV-3, PC-3, U-87, and one normal cell line: HDF.
(§2) Human cancer cells: SKBR-3 and SKOV-3 were cultured in McCoy’s Modified Medium; PC-3 was cultured in an F-12K medium; U-87 was cultured in EMEM medium; HDF was cultured in Fibroblast Basal Medium. Each medium was supplemented with 10% fetal bovine serum, 1% L- glutamine, and 1% penicillin/streptomycin solution. The cell lines were kept in an incubator at 37 °C. All the cell lines and mediums were obtained from the American Type Culture Collection (ATCC) supplied by LGC-Standards (Lomianki, Poland).
(§3) The MTT assay was conducted as described earlier, e.g., [44]. In short, this method is based on the reaction between mitochondria enzymes (dehydrogenases) of tested cell lines and 3-(4,5-dimethylthiazol-2-yl)-2,5-diphenyltetrazolium bromide (MTT). The final product of this reaction gives violet formazan crystals. The number of live cells is proportional to the amount of formazan and is represented by the violet dye reagent. The details of the experiments are given in [44].

HDF = assay: MTT assay, HDF normal cell line; assay type: cell-based; conditions: Homo sapiens, value (SD)
Procedure: as §1, §2, §3

U-87 = assay: MTT assay, U-87; assay type: cell-based, human; conditions: for U-87 SI: Selectivity Index = IC50 HDF / IC50 U-87; for IC50: U-87 MG, MTT assay, U-87 human glioblastoma, value (SD)
Procedure: as §1, §2, §3

PC-3 = assay: MTT assay, PC-3; assay type: cell-based, human; conditions: for IC50: MTT assay, PC-3 human prostate carcinoma, value (SD), read-out: B IC50 (SD); for B SI: Selectivity Index = IC50 HDF / IC50 of PC-3
Procedure: as §1, §2, §3

[2] = Solubility in ethanol observed at crystallization; assay type: physicochemical; conditions: room temperature
SKOV-3 = assay: MTT assay, SKOV-3; assay type: cell-based, human; conditions: for IC50: SK-OV-3, MTT assay, SKOV-3 human ovarian cystadenocarcinoma, value (SD); for SKOV-3 SI: Selectivity Index = IC50 HDF / IC50 SKOV-3
Procedure: as §1, §2, §3

CUPRAC antioxidant assay = conditions: Figure 3
Source text: (§4) The results of the antioxidant activity of oleanolic acid (1) and Acetylated Oleanolic Acid Dimers (AcOADs) 3a–3n evaluated with CUPRAC and DPPH assays are given in Figure 3. The results are presented as % inhibition of the copper(II) ions and Trolox equivalent (blue bars) calculated from the standard curve, presented in the Supplementary Materials (Supplementary Materials S02, Figure S1) and as % inhibition of the DPPH radical and Trolox equivalent (pink bars), calculated from the standard curve presented in the Supplementary Materials (Supplementary Materials S02, Figure S2).
(§5) The CUPRAC reagent (7.5 mM ethanolic 96% neocuproine solution, 10 mM CuCl2 × H2O solution, and an ammonium acetate buffer of pH 7.0) and DPPH reagent (2,2-diphenyl-1-picrylhydrazyl 0.2 mM solution) were applied.
(§6) The DPPH assay relies on the ability of an antioxidant to donate a hydrogen atom or an electron to the stable DPPH radical, resulting in its reduction and subsequent color change. In contrast, the CUPRAC method measures the reducing power of a sample by quantifying its ability to convert the Cu-neocuproine reagent complex into the Cu(I) form. The results are presented as % inhibition of the copper(II) ions and Trolox equivalent (blue bars) calculated from the standard curve (Supplementary Materails S02, Figure S1) and as % inhibition of the DPPH radical and Trolox equivalent (pink bars), calculated from the standard curve (Supplementary Materials S02, Figure S2). The details of the experiments are given in [46].

[3] = system: SKBR-3, SKOV-3, PC-3, and U-87 cancer cell lines; assay: MTT assay, four cancer cell lines taken together; assay type: cell-based, human; conditions: MTT, across SKBR-3, SKOV-3, PC-3, U-87
Procedure: as §1, §2, §3

DPPH antioxidant assay = conditions: Figure 3
Source text: as §4, §5, §6

[4] = parameters: method as in PMID 39000101, PMID 39125028; conditions: previously analyzed derivatives; cited from earlier work; remark: listed apart in the source

| IC50 (SKBR-3) | IC50 (U-87) | IC50 (PC-3) | IC50 (SKOV-3) | IC50 ([3]; Homo sapiens) | Structure (SMILES) | CUPRAC activity (in words), previous analysis [1] | SKBR-3 SI (SKBR-3) | IC50 (HDF) | U-87 SI (U-87) | B SI (PC-3) | SKOV-3 SI (SKOV-3) | CUPRAC activity (in words) (CUPRAC antioxidant assay) | other results |
| --- | --- | --- | --- | --- | --- | --- | --- | --- | --- | --- | --- | --- | --- |
|  |  |  |  |  | CC1(C)CCC2(C(=O)OCCCCCCCCCCCOC(=O)C34CCC(C)(C)CC3C3=CCC5C6(C)CCC(O)C(C)(C)C6CCC5(C)C3(C)CC4)CCC3(C)C(=CCC4C5(C)CCC(O)C(C)(C)C5CCC43C)C2C1 (stereo not shown) [Compound 2m] | high CUPRAC values |  |  |  |  |  |  |  |
| 9.69 µM | 10.2 µM | 9.49 µM | 10.2 µM |  | CC(=O)OC1CCC2(C)C(CCC3(C)C2CC=C2C4CC(C)(C)CCC4(C(=O)OCCCCCCCCCCCCOC(=O)C45CCC(C)(C)CC4C4=CCC6C7(C)CCC(OC(C)=O)C(C)(C)C7CCC6(C)C4(C)CC5)CCC23C)C1(C)C (stereo not shown) [Compound 3n] |  | 1.52 | 14.7 µM | 1.45 | 1.55 | 1.43 |  | solubility in ethanol [2]: well soluble |
|  |  |  |  |  | CC1(C)CCC2(C(=O)OCCCCCCCCOC(=O)C34CCC(C)(C)CC3C3=CCC5C6(C)CCC(O)C(C)(C)C6CCC5(C)C3(C)CC4)CCC3(C)C(=CCC4C5(C)CCC(O)C(C)(C)C5CCC43C)C2C1 (stereo not shown) [Compound 2j] | high CUPRAC values |  |  |  |  |  |  |  |
|  |  |  |  |  | CC1(C)CCC2(C(=O)OCCCCCOC(=O)C34CCC(C)(C)CC3C3=CCC5C6(C)CCC(O)C(C)(C)C6CCC5(C)C3(C)CC4)CCC3(C)C(=CCC4C5(C)CCC(O)C(C)(C)C5CCC43C)C2C1 (stereo not shown) [Compound 2g] | high CUPRAC values |  |  |  |  |  |  |  |
| 2.04 µM | 2.03 µM | 2.26 µM |  | ~2 µM | CC(=O)OC1CCC2(C)C(CCC3(C)C2CC=C2C4CC(C)(C)CCC4(C(=O)OCOC(=O)C45CCC(C)(C)CC4C4=CCC6C7(C)CCC(OC(C)=O)C(C)(C)C7CCC6(C)C4(C)CC5)CCC23C)C1(C)C (stereo not shown) [Compound 3a] |  |  | 6.63 µM |  |  |  | moderate CUPRAC activity | DPPH activity (in words) (DPPH antioxidant assay): higher antioxidant activity than OA; also recorded: high DPPH activity; melting point: 286 to 288 °C |
|  |  |  |  |  | CC1(C)CCC2(C(=O)OCCCCCCCOC(=O)C34CCC(C)(C)CC3C3=CCC5C6(C)CCC(O)C(C)(C)C6CCC5(C)C3(C)CC4)CCC3(C)C(=CCC4C5(C)CCC(O)C(C)(C)C5CCC43C)C2C1 (stereo not shown) [Compound 2i] | high CUPRAC values |  |  |  |  |  |  |  |
|  |  |  |  |  | CC1(C)CCC2(C(=O)OCOC(=O)C34CCC(C)(C)CC3C3=CCC5C6(C)CCC(O)C(C)(C)C6CCC5(C)C3(C)CC4)CCC3(C)C(=CCC4C5(C)CCC(O)C(C)(C)C5CCC43C)C2C1 (stereo not shown) [Compound 2a] | lower CUPRAC activity |  |  |  |  |  |  | DPPH activity (in words), previous analysis [4]: high DPPH activity |
| 2.97 µM | 3.1 µM | 3.12 µM | 3.04 µM | 2.5 to 4.5 µM | CC(=O)OC1CCC2(C)C(CCC3(C)C2CC=C2C4CC(C)(C)CCC4(C(=O)OCCOC(=O)C45CCC(C)(C)CC4C4=CCC6C7(C)CCC(OC(C)=O)C(C)(C)C7CCC6(C)C4(C)CC5)CCC23C)C1(C)C (stereo not shown) [Compound 3b] |  | 2.37 | 7.05 µM | 2.27 | 2.26 | 2.32 | highest CUPRAC activity; also recorded: high CUPRAC activity | DPPH activity (in words) (DPPH antioxidant assay): low DPPH activity |
| 1.78 µM | 1.83 µM | 1.76 µM | 2.31 µM | ~2 µM | CC(=O)OC1CCC2(C)C(CCC3(C)C2CC=C2C4CC(C)(C)CCC4(C(=O)OCCCCCCCCCCCOC(=O)C45CCC(C)(C)CC4C4=CCC6C7(C)CCC(OC(C)=O)C(C)(C)C7CCC6(C)C4(C)CC5)CCC23C)C1(C)C (stereo not shown) [Compound 3m] |  | 2.59 | 4.62 µM | 2.52 | 2.62 | 2.00 | highest CUPRAC activity | IC50 [3]: ≤ 2 µM; solubility in ethanol [2]: well soluble |
